# Active and inactive are the calls of the source. The rule behind the calls is not given here.
# How the values were obtained:
# [1] = Cytotoxicity against human MT4 cells assessed as reduction in cell viability; format: cell-based
# [2] = Selectivity index, ratio of CC50 for human MT4 cells to EC50 for HIV1 3B infected in human MT4 cells; format: toxicity, cell-based; conditions: HIV-1 3B infected MT4 cells, read-out: Ratio CC50/EC50
# [3] = molecular target: T1, Human immunodeficiency virus type 1 reverse transcriptase (Human immunodeficiency virus 1, UniProt Q72547); test: Inhibition of HIV1 recombinant wild type reverse transcriptase p66/p51 pre-incubated with compound before enzyme addition using poly(rA) template and measured after 40 mins by picogreen based spectrofluorometry
# [4] = test system: Human immunodeficiency virus 1; test: Antiviral activity against HIV1 3B infected in human MT4 cells assessed as inhibition of virus-induced cytopathogenic effect; format: functional, organism-based; conditions: Human immunodeficiency virus 1, 3B
# [5] = test system: Human immunodeficiency virus 1; test: Antiviral activity against HIV1 3B expressing reverse transcriptase K103N/Y181C mutant infected in human MT4 cells assessed as inhibition of virus-induced cytopathogenic effect; format: functional, organism-based
# [6] = test system: Human immunodeficiency virus 1; test: Antiviral activity against HIV1 3B infected in human MT4 cells exposed to MT4 cell CC50 level of compound added after 1 to 25 hrs post virus infection following 1 hr virus adsorption period assessed as assessed as inhibition of virus-induced cytopathogenic effect; format: functional, organism-based
# [7] = test system: Human immunodeficiency virus 1; test: Antiviral activity against HIV1 3B infected in human MT4 cells exposed to MT4 cell CC50 level of compound added after 1 to 25 hrs post virus infection following 1 hr virus adsorption period assessed as inhibition of virus production measured at 31 hrs post infection by p24 ELISA method; format: functional, organism-based
# [8] = molecular target: T1, Human immunodeficiency virus type 1 reverse transcriptase; test: Inhibition of HIV1 ribonuclease H pre-incubated with compound before enzyme addition using RNA/DNA heteroduplex and measured after 60 mins by picogreen based spectrofluorometry
# [9] = molecular target: Human immunodeficiency virus type 1 reverse transcriptase (Human immunodeficiency virus 1, UniProt Q72547, L100I); test: Inhibition of HIV1 reverse transcriptase L100I mutant using radioactively-labeled […] substrate and activated DNA as template-primer complex
# [10] = molecular target: Human immunodeficiency virus type 1 reverse transcriptase (Human immunodeficiency virus 1, UniProt Q72547, K103N/Y181C); test: Inhibition of HIV1 reverse transcriptase K103N/Y181C mutant using radioactively-labeled […] substrate and activated DNA as template-primer complex
# [11] = molecular target: Human immunodeficiency virus type 1 reverse transcriptase (Human immunodeficiency virus 1, UniProt Q72547, V106A); test: Inhibition of HIV1 reverse transcriptase V106A mutant using radioactively-labeled […] substrate and activated DNA as template-primer complex
# [12] = molecular target: Human immunodeficiency virus type 1 reverse transcriptase (Human immunodeficiency virus 1, UniProt Q72547, G190A); test: Inhibition of HIV1 reverse transcriptase G190A mutant using radioactively-labeled […] substrate and activated DNA as template-primer complex
# [13] = molecular target: Human immunodeficiency virus type 1 reverse transcriptase (Human immunodeficiency virus 1, UniProt Q72547, K103N); test: Inhibition of HIV1 reverse transcriptase K103N mutant using radioactively-labeled […] substrate and activated DNA as template-primer complex
# [14] = molecular target: Human immunodeficiency virus type 1 reverse transcriptase (Human immunodeficiency virus 1, UniProt Q72547, Y181C); test: Inhibition of HIV1 reverse transcriptase Y181C mutant using radioactively-labeled […] substrate and activated DNA as template-primer complex
Structure (SMILES),CC50 [1] [µM],selectivity ratio [2],Ki [3] [µM],EC50 [4] [µM],inhibition [5],inhibition [6],inhibition [7],IC50 [3] [µM],IC50 [8],Ki [9] [µM],Ki [10] [µM],Ki [11] [µM],Ki [12] [µM],Ki [13] [µM],IC50 ([8]; read-out: IC50) [µM],Ki [14] [µM]
Cc1ccnc2c1NC(=O)c1cccnc1N2C1CC1 [NEVIRAPINE],> 15,–,–,–,–,–,–,–,–,–,–,–,–,–,–,–
Cn1c(=O)c(Cl)cn(Cc2ccccc2OCC(=O)Nc2ccccc2Cl)c1=O,9.37,< 1,> 100,> 9.37,–,–,–,–,–,–,–,–,–,–,–,–
Cn1c(=O)ccn(Cc2ccccc2OCC(=O)Nc2ccccc2Cl)c1=O,141,< 1,> 100,> 141,–,–,–,–,–,–,–,–,–,–,–,–
CCCn1c(=O)ccn(Cc2ccccc2OCC(=O)Nc2ccccc2Cl)c1=O,25.4,< 1,> 100,> 25.4,–,–,–,–,–,–,–,–,–,–,–,–
Cn1c(=O)ccn(Cc2ccccc2OCC(=O)Nc2cccc(Cl)c2)c1=O,288,< 1,> 100,> 288,–,–,–,–,–,–,–,–,–,–,–,–
Cc1cc(C)cc(Cn2c(=O)ccn(CC(=O)Nc3cccc(C)c3C)c2=O)c1,276,8,–,35.8,inactive,inactive,inactive,> 300,Not Active,–,–,–,–,–,–,–
C=CCn1c(=O)ccn(Cc2ccccc2OCC(=O)Nc2ccccc2Cl)c1=O,30.6,< 1,> 100,> 30.6,–,–,–,–,–,–,–,–,–,–,–,–
Cn1c(=O)ccn(Cc2ccccc2OCC(=O)Nc2ccccc2)c1=O,153,< 1,> 100,> 153,–,–,–,–,–,–,–,–,–,–,–,–
Cc1cc(C)cc(Cn2c(=O)ccn(CC(=O)Nc3ccccc3C)c2=O)c1,292,38,–,7.68,inactive,inactive,inactive,68.8,Not Active,–,–,–,–,–,–,–
Cc1cc(C)cc(Cn2c(=O)ccn(CC(=O)NCc3ccccc3)c2=O)c1,191,< 1,–,> 191,inactive,inactive,inactive,194,Not Active,–,–,–,–,–,–,–
Cn1c(=O)c(F)cn(Cc2ccccc2OCC(=O)Nc2ccccc2Cl)c1=O,30.3,< 1,> 100,> 30.3,–,–,–,–,–,–,–,–,–,–,–,–
Cc1cn(Cc2ccccc2OCC(=O)Nc2ccccc2Cl)c(=O)n(C)c1=O,14.8,< 1,> 100,> 14.8,–,–,–,–,–,–,–,–,–,–,–,–
Cc1cc(C)cc(Cn2c(=O)ccn(CC(=O)Nc3ccccc3Cl)c2=O)c1,28.5,17,–,1.71,inactive,inactive,inactive,15.7,Not Active,–,–,–,–,–,–,–
Cc1ccccc1NC(=O)COc1ccccc1Cn1ccc(=O)n(C)c1=O,152,< 1,> 100,> 152,–,–,–,–,–,–,–,–,–,–,–,–
Cc1cc(Br)cc(Cn2c(=O)ccn(CC(=O)Nc3ccccc3)c2=O)c1,33.1,17,–,2.01,inactive,inactive,inactive,12.1,Not Active,–,–,–,–,–,–,–
Cc1cc(C)cc(Cn2c(=O)ccn(CC(=O)Nc3ccc(Cl)cc3)c2=O)c1,77.5,11,–,7.29,inactive,inactive,inactive,62.9,Not Active,–,–,–,–,–,–,–
O=C1Nc2ccc(Cl)cc2[C@@](C#CC2CC2)(C(F)(F)F)O1 [EFAVIRENZ],> 6,–,–,–,–,–,–,–,–,–,–,–,–,–,–,–
O=C(Cn1ccc(=O)n(Cc2cc(Cl)cc(Cl)c2)c1=O)Nc1ccccc1Cl,31.1,10,4.5,3.26,inactive,inactive,inactive,12.7,–,15.9,69.9,67.6,20,63.3,149,15.4
Cc1cc(C)cc(Cn2c(=O)ccn(CC(=O)Nc3cccc(Cl)c3)c2=O)c1,167,6,–,29.5,inactive,inactive,inactive,114,Not Active,–,–,–,–,–,–,–
COc1ccccc1NC(=O)Cn1ccc(=O)n(Cc2cc(C)cc(C)c2)c1=O,227,16,–,14.5,inactive,inactive,inactive,211,Not Active,–,–,–,–,–,–,–
Cc1cc(C)cc(Cn2c(=O)ccn(CC(=O)Nc3ccccc3)c2=O)c1,242,25,–,9.68,inactive,inactive,inactive,79.3,Not Active,–,–,–,–,–,–,–
Cn1c(=O)ccn(Cc2ccccc2OCC(=O)Nc2ccc(Cl)cc2)c1=O,100,< 1,> 100,> 100,–,–,–,–,–,–,–,–,–,–,–,–
Cn1c(=O)ccn(Cc2ccccc2OCC(=O)Nc2cc(Cl)ccc2Cl)c1=O,29.5,< 1,> 100,> 29.5,–,–,–,–,–,–,–,–,–,–,–,–
O=C(Cn1ccc(=O)n(Cc2cccc3ccccc23)c1=O)Nc1ccccc1Cl,207,26,–,7.94,inactive,inactive,inactive,44.5,Not Active,–,–,–,–,–,–,–

# Source: ChEMBL document CHEMBL3396963, “Scaffold hopping: exploration of acetanilide-containing uracil analogues as potential NNRTIs” (Bioorg Med Chem, 2015)
